Values of other authors in patent US20160199317A1, “ESTRADIOL CONTAINING TRANSDERMAL DRUG DELIVERY SYSTEMS AND COMPOSITIONS” (3M INNOVATIVE PROPERTIES COMPANY, priority 2013, published 2016).

Details: background statement

## C[C@]12CC[C@@H]3c4ccc(O)cc4CC[C@H]3[C@@H]1CC[C@@H]2O [estradiol, estra-1,3,5(10)-triene-3,17β-diol]
  half-life: about one
